Data taken from patent EP0305843A2, “Antiviral agent” (BAYER AG, priority 1987, dated 1989).

Experiments:
[1] = tested on: T-Zellen; assay: Further studies: influence on the function of T cells; format: cell-based; details: no method or concentration given
[2] = tested on: Visna-Virus; assay: Visna virus test in cell culture (inhibition of virus-induced cytopathic effect, method of Narayan et al.); format: cell-based; details: Visna-virus-infected cell cultures treated with the compound at non-cytotoxic concentrations
Source text: In Zellkulturen, die mit Visna-Virus infiziert sind, treten 5 bis 10 Tage nach der Infektion ausgeprägte virusinduzierte, zytopathische Effekte auf. Durch Behandlung der infizierten Zellkulturen mit 9-(2,3-Anhydro-β-D-lyxofuranosyl)adenin konnte das Auftreten dieser zytopathischen Effekte verhindert werden. Der Visna-Virus-Test wurde nach der Methode von O. Narayan et al., Journal of Infectious Dieseases 135, 5, 1977, 800-806 durchgeführt. Dazu wurde 9-(2,3-Anhydro-β-D-lyxofuranosyl)adenin - in Produktionsmedium gelöst - in nicht zytotoxischen Konzentrationen in 96er Microtiterplatten verdünnt. Anschließend wurden Fibroblastenzellen vom Schaf (5 x 10⁴ Zellen pro Napf) - in Produktionsmedium suspendiert - zu jedem Näpfchen zugeführt. Jedes Näpfchen erhielt dann 50 µl einer Visna-Viruslösung mit einer Titer von ca. 2,5 x 10⁴ TCID₅₀ (TCID = tissue culture infectious dose). Diese Virusdosis entspricht einer MOI (Multiplizität der Infektion) von ca. 0,05.
Unter diesen Infektionsbedingungen resultierte zwischen Tag 5 und Tag 10 in einer Infektionskontrolle ohne Substanz ein virusinduzierter, zytopathischer Effekt. Die infizierten und behandelten Zellen und die Kontrollzellen wurden 7 Tage bei 37°C, 5 % CO₂ inkubiert. […]

- Funktion von T-Zellen [1]: nicht beeinflußt
Structure (SMILES): Nc1ncnc2c1ncn2[C@@H]1O[C@H](CO)[C@@H]2O[C@@H]21 [9-(2,3-Anhydro-β-D-lyxofuranosyl)adenin]
- Auftreten der virusinduzierten zytopathischen Effekte [2]: verhindert
